test system: C57BL/6J mice; assay: Oral glucose tolerance test; assay type: in vivo; conditions: male C57BL/6J mice, fasted overnight; oral gavage 10 mg/kg; solvent 0.5% MC; glucose 3 g/kg orally 30 minutes after compound; area under the curve of blood glucose level relative to control group
Experimental: Commercially available mice (C57BL/6J mice; male; 8 to 12 weeks old when used; distributed by Charles River Laboratories Japan, Inc.) were used.
After acclimatization with freely feeding (FR-2, Funabashi Farm Co., Ltd.) for one week or more, the mice were fasted overnight and then used for the test. A 0.5% methylcellulose (Wako Pure Chemical Industries, Ltd.) solution (0.5% MC) containing a test compound at a concentration of 1 mg/ml and a mixed solution (PG:Tween) of propylene glycol (80 v/v %, Nacalai Tesque, Inc.) and Tween 80 (20 v/v %, Nacalai Tesque, Inc.) containing a test compound at a concentration of 2 mg/ml were prepared for administration to the mice. The prepared solution was administered by oral gavage to four or five mice in each group at a dose of 10 mg/kg as the test compound. For a control group, a 0.5% methylcellulose solution (dose: 10 ml/kg) or a mixed solution of propylene glycol and Tween 80 (dose: 5 ml/kg) was orally administered to mice. An oral glucose tolerance test was carried out by administering a glucose solution (Otsuka Glucose Solution 50%; Otsuka Pharmaceutical Factory, Inc.) orally at a dose of 3 g/kg to the mice 30 minutes after administration of the test compound.
Blood was collected from the tail vein of each mouse immediately before administration of the test compound (T0), […] after administration of the test compound (T1), and 30 minutes (T2) and 90 minutes (T3) after oral glucose loading. The blood glucose level was measured using a blood glucose level measuring apparatus (ACCU-CHEK Aviva; Roche Diagnostics, K.K.). The blood glucose level T1 was analyzed as a value obtained 30 minutes after administration of the compound and immediately before glucose loading. According to the following formula, the area under the curve of blood glucose level was calculated, and thereafter, the blood glucose lowering rate (%) was calculated as a value relative to the control group. The area under the curve of blood glucose level=[(blood glucose level T0+blood glucose level T1)×30]÷2+[(blood glucose level T1+blood glucose level T2)×30]÷2+[(blood glucose level T2+blood glucose level T3)×60]÷2 Blood glucose lowering rate(%)=[1−(the area under the curve of blood glucose level for the test compound group/the area under the curve of blood glucose level for the control group)]×100

Compared with C#Cc1ccc(-c2ccc(OC)c(C3C4=C(CC(C)(C)CC4=O)OC4=C3C(=O)CC(C)(C)C4)c2C)nc1C(=O)O [Example 12, 3-Ethynyl-6-[4-methoxy-2-methyl-3-(3,3,6,6-tetramethyl-1,8-dioxo-2,3,4,5,6,7,8,9-octahydro-1H-xanthen-9-yl)phenyl]pyridine-2-carboxylic acid], CCc1ccc(-c2ccc(OC)c(C3C4=C(CC(C)(C)CC4=O)OC4=C3C(=O)CC(C)(C)C4)c2C)nc1C(=O)O [Example 13, 3-Ethyl-6-[4-methoxy-2-methyl-3-(3,3,6,6-tetramethyl-1,8-dioxo-2,3,4,5,6,7,8,9-octahydro-1H-xanthen-9-yl)phenyl]pyridine-2-carboxylic acid] is higher in “Blood glucose lowering rate (%)” value: 31% for the first, 61% for the second.

Going from COc1ccc(-c2cccc(C(=O)NS(C)(=O)=O)n2)c(C)c1C1C2=C(CC(C)(C)CC2=O)OC2=C1C(=O)CC(C)(C)C2.[K] [Example 14, 6-[4-Methoxy-2-methyl-3-(3,3,6,6-tetramethyl-1,8-dioxo-2,3,4,5,6,7,8,9-octahydro-1H-xanthen-9-yl)phenyl]-N-(methylsulfonyl)pyridine-2-carboxamide potassium salt] to CC(C)(C)N.COc1ccc(-c2cccc(C(=O)NS(C)(=O)=O)n2)c(C)c1C1C2=C(CC(C)(C)CC2=O)OC2=C1C(=O)CC(C)(C)C2 [Example 18, 6-[4-methoxy-2-methyl-3-(3,3,6,6-tetramethyl-1,8-dioxo-2,3,4,5,6,7,8,9-octahydro-1H-xanthen-9-yl)phenyl]-N-(methylsulfonyl)pyridine-2-carboxamide 2-methylpropan-2-amine salt], the “Blood glucose lowering rate (%)” value falls from 46% to 31%.

First: COc1ccc(-c2ccc(C)c(C(=O)NS(C)(=O)=O)n2)c(C)c1C1C2=C(CC(C)(C)CC2=O)OC2=C1C(=O)CC(C)(C)C2 [Example 16, 6-[4-Methoxy-2-methyl-3-(3,3,6,6-tetramethyl-1,8-dioxo-2,3,4,5,6,7,8,9-octahydro-1H-xanthen-9-yl)phenyl]-3-methyl-N-(methylsulfonyl)pyridine-2-carboxamide]
Second: COc1ccc(-c2ccc(C)c(C(=O)NS(C)(=O)=O)n2)c(C)c1C1C2=C(CC(C)(C)CC2=O)OC2=C1C(=O)CC(C)(C)C2.[Na] [Example 19, 6-[4-Methoxy-2-methyl-3-(3,3,6,6-tetramethyl-1,8-dioxo-2,3,4,5,6,7,8,9-octahydro-1H-xanthen-9-yl)phenyl]-3-methyl-N-(methylsulfonyl)pyridine-2-carboxamide sodium salt]
The “Blood glucose lowering rate (%)” value of the first is higher: 45% for the first, 40% for the second.

First: CCc1ccc(-c2ccc(OC)c(C3C4=C(CC(C)(C)CC4=O)OC4=C3C(=O)CC(C)(C)C4)c2C)nc1C(=O)NS(C)(=O)=O [Example 17, 3-Ethyl-6-[4-methoxy-2-methyl-3-(3,3,6,6-tetramethyl-1,8-dioxo-2,3,4,5,6,7,8,9-octahydro-1H-xanthen-9-yl)phenyl]-N-(methylsulfonyl)pyridine-2-carboxamide]
Second: COCCOc1ccc(-c2ccc(OC)c(C3C4=C(CC(C)(C)CC4=O)OC4=C3C(=O)CC(C)(C)C4)c2C)nc1C(=O)O [Example 29, 3-(2-Methoxyethoxy)-6-[4-methoxy-2-methyl-3-(3,3,6,6-tetramethyl-1,8-dioxo-2,3,4,5,6,7,8,9-octahydro-1H-xanthen-9-yl)phenyl]pyridine-2-carboxylic acid]
The “Blood glucose lowering rate (%)” value of the first is higher: 43% for the first, 32% for the second.

Compared with COc1ccc(-c2cccc(C(=O)NS(C)(=O)=O)n2)c(C)c1C1C2=C(CC(C)(C)CC2=O)OC2=C1C(=O)CC(C)(C)C2.COc1ccc(-c2cccc(C(=O)NS(C)(=O)=O)n2)c(C)c1C1C2=C(CC(C)(C)CC2=O)OC2=C1C(=O)CC(C)(C)C2.[Ca] [Example 20, 6-[4-Methoxy-2-methyl-3-(3,3,6,6-tetramethyl-1,8-dioxo-2,3,4,5,6,7,8,9-octahydro-1H-xanthen-9-yl)phenyl]-N-(methylsulfonyl)pyridine-2-carboxamide hemi-calcium salt], COc1ccc(-c2ccc(C)c(C(=O)NS(C)(=O)=O)n2)c(C)c1C1C2=C(CC(C)(C)CC2=O)OC2=C1C(=O)CC(C)(C)C2.COc1ccc(-c2ccc(C)c(C(=O)NS(C)(=O)=O)n2)c(C)c1C1C2=C(CC(C)(C)CC2=O)OC2=C1C(=O)CC(C)(C)C2.[Ca] [Example 21, 6-[4-Methoxy-2-methyl-3-(3,3,6,6-tetramethyl-1,8-dioxo-2,3,4,5,6,7,8,9-octahydro-1H-xanthen-9-yl)phenyl]-3-methyl-N-(methylsulfonyl)pyridine-2-carboxamide hemi-calcium salt] is higher in “Blood glucose lowering rate (%)” value: 41% for the first, 54% for the second.

In the case of COc1ccc(-c2ccc(C)c(C(=O)O)n2)cc1C1C2=C(CC(C)(C)CC2=O)OC2=C1C(=O)CC(C)(C)C2 [Example 30, 6-[4-Methoxy-3-(3,3,6,6-tetramethyl-1,8-dioxo-2,3,4,5,6,7,8,9-octahydro-1H-xanthen-9-yl)phenyl]-3-methylpyridine-2-carboxylic acid], the “Blood glucose lowering rate (%)” value is reported as 55%.

same assay, conditions: male C57BL/6J mice, fasted overnight; oral gavage 10 mg/kg; solvent PG:Tween; glucose 3 g/kg orally 30 minutes after compound; area under the curve of blood glucose level relative to control group

Going from COc1ccc(-c2cccc(C(=O)O)n2)cc1C1C2=C(CC(C)(C)CC2=O)OC2=C1C(=O)CC(C)(C)C2 [Example 1, 6-[4-Methoxy-3-(3,3,6,6-tetramethyl-1,8-dioxo-2,3,4,5,6,7,8,9-octahydro-1H-xanthen-9-yl)phenyl]pyridine-2-carboxylic acid] to COc1ccc(-c2cccc(C(=O)NS(C)(=O)=O)n2)cc1C1C2=C(CC(C)(C)CC2=O)OC2=C1C(=O)CC(C)(C)C2 [Example 5, 6-[4-Methoxy-3-(3,3,6,6-tetramethyl-1,8-dioxo-2,3,4,5,6,7,8,9-octahydro-1H-xanthen-9-yl)phenyl]-N-(methylsulfonyl)pyridine-2-carboxamide], the “Blood glucose lowering rate (%)” value rises from 39% to 43%.

Going from COc1ccc(-c2cccc(C(=O)O)n2)c(C)c1C1C2=C(CC(C)(C)CC2=O)OC2=C1C(=O)CC(C)(C)C2 [Example 4, 6-[4-Methoxy-2-methyl-3-(3,3,6,6-tetramethyl-1,8-dioxo-2,3,4,5,6,7,8,9-octahydro-1H-xanthen-9-yl)phenyl]pyridine-2-carboxylic acid] to COc1ccc(-c2cccc(C(=O)NS(C)(=O)=O)n2)c(C)c1C1C2=C(CC(C)(C)CC2=O)OC2=C1C(=O)CC(C)(C)C2 [Example 9, 6-[4-Methoxy-2-methyl-3-(3,3,6,6-tetramethyl-1,8-dioxo-2,3,4,5,6,7,8,9-octahydro-1H-xanthen-9-yl)phenyl]-N-(methylsulfonyl)pyridine-2-carboxamide], the “Blood glucose lowering rate (%)” value falls from 60% to 42%.

Going from COc1ccc(-c2cccc(-c3noc(=O)[nH]3)n2)cc1C1C2=C(CC(C)(C)CC2=O)OC2=C1C(=O)CC(C)(C)C2 [Example 8, 9-{2-Methoxy-5-[6-(5-oxo-4,5-dihydro-1,2,4-oxadiazol-3-yl)pyridin-2-yl]phenyl}-3,3,6,6-tetramethyl-3,4,5,6,7,9-hexahydro-1H-xanthene-1,8(2H)-dione] to COc1ccc(-c2ccc(C)c(C(=O)O)n2)c(C)c1C1C2=C(CC(C)(C)CC2=O)OC2=C1C(=O)CC(C)(C)C2 [Example 10, 6-[4-Methoxy-2-methyl-3-(3,3,6,6-tetramethyl-1,8-dioxo-2,3,4,5,6,7,8,9-octahydro-1H-xanthen-9-yl)phenyl]-3-methylpyridine-2-carboxylic acid], the “Blood glucose lowering rate (%)” value rises from 38% to 55%.

First: COc1ccc(-c2ccc(O)c(C(=O)O)n2)c(C)c1C1C2=C(CC(C)(C)CC2=O)OC2=C1C(=O)CC(C)(C)C2 [Example 11, 3-Hydroxy-6-[4-methoxy-2-methyl-3-(3,3,6,6-tetramethyl-1,8-dioxo-2,3,4,5,6,7,8,9-octahydro-1H-xanthen-9-yl)phenyl]pyridine-2-carboxylic acid]
Second: COc1ccc(-c2ccc(OC)c(C3C4=C(CC(C)(C)CC4=O)OC4=C3C(=O)CC(C)(C)C4)c2C)nc1C(=O)O [Example 23, 3-Methoxy-6-[4-methoxy-2-methyl-3-(3,3,6,6-tetramethyl-1,8-dioxo-2,3,4,5,6,7,8,9-octahydro-1H-xanthen-9-yl)phenyl]pyridine-2-carboxylic acid]
The “Blood glucose lowering rate (%)” value of the first is lower: 42% for the first, 46% for the second.

In the case of CCOc1ccc(-c2ccc(OC)c(C3C4=C(CC(C)(C)CC4=O)OC4=C3C(=O)CC(C)(C)C4)c2C)nc1C(=O)O [Example 28, 3-Ethoxy-6-[4-methoxy-2-methyl-3-(3,3,6,6-tetramethyl-1,8-dioxo-2,3,4,5,6,7,8,9-octahydro-1H-xanthen-9-yl)phenyl]pyridine-2-carboxylic acid], the “Blood glucose lowering rate (%)” value is reported as 60%.
